Data reported in patent publication US10435399B2, “HDAC6 inhibitory heterocyclic compound” (TAKEDA PHARMACEUTICAL COMPANY LIMITED, priority 2017, dated 2019).

target: T1, HDAC6 enzyme (Homo sapiens, UniProt Q9UBN7); assay: HDAC6 enzyme inhibitory activity (HDAC-Glo I/II Assay kit); type: biochemical; settings: 10 μM; wells without enzyme = 100% inhibition
T1 construct: transducing full length HDAC6 gene into Sf-9 insect cells; GST; purchased SignalChem; host or cells: Sf-9 insect cells
T1 sequence (Q9UBN7 1-1215): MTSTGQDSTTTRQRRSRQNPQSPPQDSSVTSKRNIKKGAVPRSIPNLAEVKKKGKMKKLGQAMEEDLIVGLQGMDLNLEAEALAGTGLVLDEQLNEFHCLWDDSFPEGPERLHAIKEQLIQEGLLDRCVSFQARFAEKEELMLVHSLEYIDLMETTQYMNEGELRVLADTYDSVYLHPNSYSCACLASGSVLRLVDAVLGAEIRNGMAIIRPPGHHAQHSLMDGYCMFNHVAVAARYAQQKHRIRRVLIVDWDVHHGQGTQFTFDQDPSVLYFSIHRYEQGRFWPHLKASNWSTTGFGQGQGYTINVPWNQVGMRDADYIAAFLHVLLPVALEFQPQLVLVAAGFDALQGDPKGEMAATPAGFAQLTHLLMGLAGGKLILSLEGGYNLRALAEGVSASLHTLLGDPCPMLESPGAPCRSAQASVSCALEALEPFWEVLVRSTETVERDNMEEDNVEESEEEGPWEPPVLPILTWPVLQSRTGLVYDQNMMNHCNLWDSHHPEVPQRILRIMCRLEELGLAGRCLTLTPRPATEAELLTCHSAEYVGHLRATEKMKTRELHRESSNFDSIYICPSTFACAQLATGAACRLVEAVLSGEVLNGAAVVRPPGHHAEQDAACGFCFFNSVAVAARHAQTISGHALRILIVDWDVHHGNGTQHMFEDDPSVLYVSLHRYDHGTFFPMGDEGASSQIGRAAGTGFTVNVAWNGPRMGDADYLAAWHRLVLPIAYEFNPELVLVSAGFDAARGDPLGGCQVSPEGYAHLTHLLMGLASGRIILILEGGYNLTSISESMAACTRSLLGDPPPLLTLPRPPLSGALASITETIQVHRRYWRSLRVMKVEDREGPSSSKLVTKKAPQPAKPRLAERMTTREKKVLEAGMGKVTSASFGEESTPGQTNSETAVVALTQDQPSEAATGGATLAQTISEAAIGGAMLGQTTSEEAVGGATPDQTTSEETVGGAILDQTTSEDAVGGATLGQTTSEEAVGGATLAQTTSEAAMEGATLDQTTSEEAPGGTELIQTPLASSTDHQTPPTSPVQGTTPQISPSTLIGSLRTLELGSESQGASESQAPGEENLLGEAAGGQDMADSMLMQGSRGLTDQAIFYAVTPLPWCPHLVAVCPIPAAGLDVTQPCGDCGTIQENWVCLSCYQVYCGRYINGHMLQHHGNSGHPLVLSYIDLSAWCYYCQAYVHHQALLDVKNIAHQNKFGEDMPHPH
In short: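 Sf-9-derived GST-purified full-length HDAC6 + cpd, 60 min RT, 24 mM Tris pH 7.5/0.6 mM glutathione/0.01% Tween-20; add HDAC-Glo substrate-developer, 20 min RT; luminescence. No-enzyme = 100% inhibition.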

| SMILES | HDAC6 inhibitory rate (%) (10 μM) |
| --- | --- |
| O=C1c2cc(-c3nnc(C(F)F)o3)cnc2CN1[C@@H]1COCC[C@H]1Oc1ccc(F)c(F)c1 [Example 649, 1,5-anhydro-2,4-dideoxy-2-(3-(5-(difluoromethyl)-1,3,4-oxadiazol-2-yl)-5-oxo-5,7-dihydro-6H-pyrrolo[3,4-b]pyridin-6-yl)-3-O-(3,4-difluorophenyl)-threo-pentitol (Optical Isomer)] | 100 |
| O=C1c2cc(-c3nnc(C(F)F)o3)cnc2CN1[C@@H]1COCC[C@H]1Oc1cc(F)cc(F)c1 [Example 651, 1,5-anhydro-2,4-dideoxy-2-(3-(5-(difluoromethyl)-1,3,4-oxadiazol-2-yl)-5-oxo-5,7-dihydro-6H-pyrrolo[3,4-b]pyridin-6-yl)-3-O-(3,5-difluorophenyl)-threo-pentitol (optical isomer)] | 100 |
| O=C1c2cc(-c3nnc(C(F)F)o3)cnc2CN1[C@@H]1COCC[C@H]1Oc1cccc(F)c1 [Example 653, 1,5-anhydro-2,4-dideoxy-2-(3-(5-(difluoromethyl)-1,3,4-oxadiazol-2-yl)-5-oxo-5,7-dihydro-6H-pyrrolo[3,4-b]pyridin-6-yl)-3-O-(3-fluorophenyl)-threo-pentitol (optical isomer)] | 99 |
| O=C1c2cc(-c3nnc(C(F)F)o3)cnc2CN1[C@@H]1COCC[C@H]1Oc1ccc(F)cc1F [Example 656, 1,5-anhydro-2,4-dideoxy-2-(3-(5-(difluoromethyl)-1,3,4-oxadiazol-2-yl)-5-oxo-5,7-dihydro-6H-pyrrolo[3,4-b]pyridin-6-yl)-3-O-(2,4-difluorophenyl)-threo-pentitol (Optical Isomer)] | 100 |
| O=C1c2cc(-c3nnc(C(F)F)o3)cnc2CN1[C@@H]1COCC[C@H]1Oc1c(F)cccc1F [Example 660, 1,5-anhydro-2,4-dideoxy-2-{3-[5-(difluoromethyl)-1,3,4-oxadiazol-2-yl]-5-oxo-5,7-dihydro-6H-pyrrolo[3,4-b]pyridin-6-yl}-3-O-(2,6-difluorophenyl)-threo-pentitol (optical isomer)] | 100 |

same assay, conditions: 10 μM; wells without enzyme = 100% inhibition; read-out: HDAC6 inhibitory rate (%) (10 μM)

| SMILES | inhibition at 10 µM [%] |
| --- | --- |
| O=C1c2cc(-c3nnc(C(F)F)o3)cnc2CN1[C@@H]1CCC(F)(F)C[C@H]1NC(=O)C(F)(F)C(F)(F)F [Example 640, N-((1R,2R)-2-(3-(5-(difluoromethyl)-1,3,4-oxadiazol-2-yl)-5-oxo-5,7-dihydro-6H-pyrrolo[3,4-b]pyridin-6-yl)-5,5-difluorocyclohexyl)-2,2,3,3,3-pentafluoropropanamide] | 100 |
| O=C1c2cc(-c3nnc(C(F)F)o3)cnc2CN1[C@@H]1CCC(F)(F)C[C@H]1NC(=O)C(F)(F)C(F)F [Example 641, N-((1R,2R)-2-(3-(5-(difluoromethyl)-1,3,4-oxadiazol-2-yl)-5-oxo-5,7-dihydro-6H-pyrrolo[3,4-b]pyridin-6-yl)-5,5-difluorocyclohexyl)-2,2,3,3-tetrafluoropropanamide] | 99 |
| O=C1c2cc(-c3nnc(C(F)F)o3)cnc2CN1[C@@H]1CC(F)(F)CC[C@H]1NC(=O)C(F)(F)C(F)(F)F [Example 642, N-((1R,2R)-2-(3-(5-(difluoromethyl)-1,3,4-oxadiazol-2-yl)-5-oxo-5,7-dihydro-6H-pyrrolo[3,4-b]pyridin-6-yl)-4,4-difluorocyclohexyl)-2,2,3,3,3-pentafluoropropanamide] | 100 |
| CC(F)(F)C(=O)N[C@@H]1CCC(F)(F)C[C@H]1N1Cc2ncc(-c3nnc(C(F)F)o3)cc2C1=O [Example 643] | 100 |
| O=C1c2cc(-c3nnc(C(F)F)o3)cnc2CN1[C@@H]1CC(F)(F)CC[C@H]1NC(=O)C(F)(F)C(F)F [Example 644, N-((1R,2R)-2-(3-(5-(difluoromethyl)-1,3,4-oxadiazol-2-yl)-5-oxo-5,7-dihydro-6H-pyrrolo[3,4-b]pyridin-6-yl)-4,4-difluorocyclohexyl)-2,2,3,3-tetrafluoropropanamide] | 99 |
| CCN(CC)C(=O)C1CC(F)(F)CCN1N1Cc2ccc(-c3nnc(C(F)F)o3)cc2C1=O (stereo not shown) [Example 645, 1-(6-(5-(difluoromethyl)-1,3,4-oxadiazol-2-yl)-1-oxo-1,3-dihydro-2H-isoindol-2-yl)-N,N-diethyl-4,4-difluoropiperidine-2-carboxamide] | 99 |
| O=C1c2cc(-c3nnc(C(F)F)o3)cnc2CN1[C@@H]1COCC[C@H]1Oc1ccc(F)c(F)c1 [Example 646, 1,5-anhydro-2,4-dideoxy-2-(3-(5-(difluoromethyl)-1,3,4-oxadiazol-2-yl)-5-oxo-5,7-dihydro-6H-pyrrolo[3,4-b]pyridin-6-yl)-3-O-(3,4-difluorophenyl)-threo-pentitol] | 99 |
| O=C1c2cc(-c3nnc(C(F)F)o3)cnc2CN1[C@@H]1COCC[C@H]1Oc1ccccc1F [Example 647, 1,5-anhydro-2,4-dideoxy-2-(3-(5-(difluoromethyl)-1,3,4-oxadiazol-2-yl)-5-oxo-5,7-dihydro-6H-pyrrolo[3,4-b]pyridin-6-yl)-3-O-(2-fluorophenyl)-threo-pentitol (optical isomer)] | 100 |

The remaining lines, values ahead:

| inhibition at 10 µM [%] | SMILES |
| --- | --- |
| 99 | O=C1c2cc(-c3nnc(C(F)F)o3)cnc2CN1[C@@H]1COCC[C@H]1Oc1cc(F)cc(F)c1 [Example 650, 1,5-anhydro-2,4-dideoxy-2-(3-(5-(difluoromethyl)-1,3,4-oxadiazol-2-yl)-5-oxo-5,7-dihydro-6H-pyrrolo[3,4-b]pyridin-6-yl)-3-O-(3,5-difluorophenyl)-threo-pentitol (optical isomer)] |
| 100 | O=C1c2cc(-c3nnc(C(F)F)o3)cnc2CN1[C@@H]1COCC[C@H]1Oc1cccc(F)c1 [Example 652, 1,5-anhydro-2,4-dideoxy-2-(3-(5-(difluoromethyl)-1,3,4-oxadiazol-2-yl)-5-oxo-5,7-dihydro-6H-pyrrolo[3,4-b]pyridin-6-yl)-3-O-(3-fluorophenyl)-threo-pentitol (optical isomer)] |
| 96 | O=C1c2cc(-c3nnc(C(F)F)o3)cnc2CN1[C@@H]1COCC[C@H]1Oc1ccc(F)cc1F [Example 655, 1,5-anhydro-2,4-dideoxy-2-(3-(5-(difluoromethyl)-1,3,4-oxadiazol-2-yl)-5-oxo-5,7-dihydro-6H-pyrrolo[3,4-b]pyridin-6-yl)-3-O-(2,4-difluorophenyl)-threo-pentitol] |
| 100 | O=C1c2cc(-c3nnc(C(F)F)o3)cnc2CN1[C@@H]1COCC[C@H]1Oc1cccc(F)c1F [Example 657, 1,5-anhydro-2,4-dideoxy-2-{3-[5-(difluoromethyl)-1,3,4-oxadiazol-2-yl]-5-oxo-5,7-dihydro-6H-pyrrolo[3,4-b]pyridin-6-yl}-3-O-(2,3-difluorophenyl)-threo-pentitol (optical isomer)] |
| 99 | O=C1c2cc(-c3nnc(C(F)F)o3)cnc2CN1[C@@H]1COCC[C@H]1Oc1c(F)cccc1F [Example 659, 1,5-anhydro-2,4-dideoxy-2-{3-[5-(difluoromethyl)-1,3,4-oxadiazol-2-yl]-5-oxo-5,7-dihydro-6H-pyrrolo[3,4-b]pyridin-6-yl}-3-O-(2,6-difluorophenyl)-threo-pentitol (optical isomer)] |
| 99 | O=C1c2cc(-c3nnc(C(F)F)o3)cnc2CN1[C@@H]1CCCC[C@@H]1NC(=O)C(F)(F)C(F)(F)F [Example 661, N-[(1S,2R)-2-{3-[5-(difluoromethyl)-1,3,4-oxadiazol-2-yl]-5-oxo-5,7-dihydro-6H-pyrrolo[3,4-b]pyridin-6-yl}cyclohexyl]-2,2,3,3,3-pentafluoropropanamide] |
